Values after ≈ are worked out from the molar mass of the structure shown.
Legend:
[1] = system: Mtb MATI (multidrug-resistant clinical isolate); assay: microbe, parasite or virus in culture; assay type: cell-based, Mycobacterium tuberculosis; details: for MIC: Mycobacterium tuberculosis, read-out: Mtb MATI MIC; for Mtb MATI susceptibility class (R/S): MDR clinical isolate
[2] = system: Mtb IZAK (multidrug-resistant clinical isolate); assay: microbe, parasite or virus in culture; assay type: cell-based, Mycobacterium tuberculosis; details: for MIC: Mycobacterium tuberculosis, read-out: Mtb IZAK MIC; for Mtb IZAK susceptibility class (R/S): MDR clinical isolate
Mtb laboratory ID MATI = details: MDR clinical isolate; external resistance profiling; cited from earlier work
Mtb laboratory ID IZAK = details: MDR clinical isolate; external resistance profiling; cited from earlier work

Compound: Cc1ccc(C(=O)Nc2nccnc2C(N)=O)cc1 [Compound 4]
- MIC [1]: 12.5 µg/mL (≈ 48.8 µM)
- MIC [2]: 12.5 µg/mL (≈ 48.8 µM)

Compound: NC(=O)c1nccnc1NC(=O)c1ccc(F)cc1 [Compound 12]
- MIC [1]: 100 µg/mL (≈ 384 µM)
- MIC [2]: 100 µg/mL (≈ 384 µM)

Compound: NC(=O)c1nccnc1NC(=O)c1ccc(Cl)cc1 [Compound 15]
- MIC [1]: 12.5 µg/mL (≈ 45.2 µM)
- MIC [2]: 12.5 µg/mL (≈ 45.2 µM)

Compound: NC(=O)c1nccnc1NC(=O)c1ccc(Br)cc1 [Compound 18]
- MIC [1]: 12.5 µg/mL (≈ 38.9 µM)
- MIC [2]: 12.5 µg/mL (≈ 38.9 µM)

Compound: CC[C@@H](CO)NCCN[C@@H](CC)CO [EMB, ethambutol]
- Mtb MATI susceptibility class (R/S) [1]: S
- MIC [1]: 0.39 µg/mL (≈ 1.91 µM)
- Mtb IZAK susceptibility class (R/S) [2]: S
- MIC [2]: 0.39 µg/mL (≈ 1.91 µM)
- Mtb MATI MIC, value from external resistance profiling (*) (Mtb laboratory ID MATI): 0.5 µg/mL
- Mtb IZAK MIC, value from external resistance profiling (*) (Mtb laboratory ID IZAK): 0.5 µg/mL

Compound: NNC(=O)c1ccncc1 [INH, isoniazid]
- Mtb MATI susceptibility class (R/S) [1]: R
- MIC [1]: > 8 µg/mL
- Mtb IZAK susceptibility class (R/S) [2]: R
- MIC [2]: 4 µg/mL (≈ 29.2 µM)

Compound: NC(=O)c1cnccn1 [PZA, pyrazinamide]
- Mtb MATI susceptibility class (R/S) [1]: R
- Mtb IZAK susceptibility class (R/S) [2]: R
- Mtb MATI MIC, value from external resistance profiling (*) (Mtb laboratory ID MATI): > 128 µg/mL
- Mtb IZAK MIC, value from external resistance profiling (*) (Mtb laboratory ID IZAK): > 16 µg/mL

Compound: CO[C@H]1/C=C/O[C@@]2(C)Oc3c(C)c(O)c4c(O)c(c(/C=N/N5CCN(C)CC5)c(O)c4c3C2=O)NC(=O)/C(C)=C\C=C\[C@H](C)[C@H](O)[C@@H](C)[C@@H](O)[C@@H](C)[C@H](OC(C)=O)[C@@H]1C [RIF, rifampicin]
- Mtb MATI susceptibility class (R/S) [1]: R
- Mtb IZAK susceptibility class (R/S) [2]: R
- Mtb MATI MIC, value from external resistance profiling (*) (Mtb laboratory ID MATI): > 8 µg/mL
- Mtb IZAK MIC, value from external resistance profiling (*) (Mtb laboratory ID IZAK): > 8 µg/mL

Compound: [H]/N=C(/N)N[C@H]1[C@H](O)[C@@H](O)[C@H](O[C@@H]2O[C@@H](C)[C@](O)(C=O)[C@H]2O[C@@H]2O[C@@H](CO)[C@H](O)[C@@H](O)[C@@H]2NC)[C@@H](N/C(N)=N\[H])[C@@H]1O [STM, streptomycin]
- Mtb MATI susceptibility class (R/S) [1]: R
- Mtb IZAK susceptibility class (R/S) [2]: R
- Mtb MATI MIC, value from external resistance profiling (*) (Mtb laboratory ID MATI): > 16 µg/mL
- Mtb IZAK MIC, value from external resistance profiling (*) (Mtb laboratory ID IZAK): 4 µg/mL

Reference: publication PMC9687610, “Adenosine-Mimicking Derivatives of 3-Aminopyrazine-2-Carboxamide: Towards Inhibitors of Prolyl-tRNA Synthetase with Antimycobacterial Activity” (Biomolecules, 2022)
